One data set relates to DYRK1A. Conditions: cited from earlier work.
The conditions of data set [1]: rat liver microsomes.
The target in data set [2] is T1, DYRK1B (Homo sapiens, UniProt Q9Y463). Description: DYRK1B radiometric kinase assay with Woodtide substrate peptide. It is filed as biochemical. As to conditions: read-out: % inhibition at 1 μM, DYRK1B.
For data set [3], the target named is T1, DYRK1B. In words: Z'-LYTE kinase activity assay.
For another data set, the target named is T2, DYRK2 (Homo sapiens, UniProt Q92630).
T2 sequence (Q92630 1-601): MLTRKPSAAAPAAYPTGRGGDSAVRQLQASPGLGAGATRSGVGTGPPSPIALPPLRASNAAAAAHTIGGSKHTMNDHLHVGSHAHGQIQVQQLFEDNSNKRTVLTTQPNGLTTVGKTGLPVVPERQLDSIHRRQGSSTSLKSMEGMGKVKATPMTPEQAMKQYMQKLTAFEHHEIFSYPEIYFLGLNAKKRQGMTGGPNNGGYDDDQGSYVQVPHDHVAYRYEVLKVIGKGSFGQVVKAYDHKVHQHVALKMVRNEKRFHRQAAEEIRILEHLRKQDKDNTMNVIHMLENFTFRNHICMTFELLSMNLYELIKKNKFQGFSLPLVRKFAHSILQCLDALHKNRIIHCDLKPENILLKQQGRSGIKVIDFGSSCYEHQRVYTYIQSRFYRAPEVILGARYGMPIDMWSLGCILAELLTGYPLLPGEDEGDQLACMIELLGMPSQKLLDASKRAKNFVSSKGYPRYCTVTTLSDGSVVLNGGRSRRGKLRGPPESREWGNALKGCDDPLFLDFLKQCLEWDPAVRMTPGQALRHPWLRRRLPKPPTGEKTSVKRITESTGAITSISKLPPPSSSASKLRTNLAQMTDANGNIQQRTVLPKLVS
In words: LanthaScreen kinase binding assay.

The target in data set [4] is T3, CLK1 (Homo sapiens, UniProt P49759). Description: Z'-LYTE kinase activity assay.
Data set [5] deals with T3, CLK1. Description: Radiometric kinase assay. Type of data set: biochemical.

Where two headings read alike, the source gives them in different places. Bounds are passed on as bounds.

T1 sequence (Q9Y463 whole entry): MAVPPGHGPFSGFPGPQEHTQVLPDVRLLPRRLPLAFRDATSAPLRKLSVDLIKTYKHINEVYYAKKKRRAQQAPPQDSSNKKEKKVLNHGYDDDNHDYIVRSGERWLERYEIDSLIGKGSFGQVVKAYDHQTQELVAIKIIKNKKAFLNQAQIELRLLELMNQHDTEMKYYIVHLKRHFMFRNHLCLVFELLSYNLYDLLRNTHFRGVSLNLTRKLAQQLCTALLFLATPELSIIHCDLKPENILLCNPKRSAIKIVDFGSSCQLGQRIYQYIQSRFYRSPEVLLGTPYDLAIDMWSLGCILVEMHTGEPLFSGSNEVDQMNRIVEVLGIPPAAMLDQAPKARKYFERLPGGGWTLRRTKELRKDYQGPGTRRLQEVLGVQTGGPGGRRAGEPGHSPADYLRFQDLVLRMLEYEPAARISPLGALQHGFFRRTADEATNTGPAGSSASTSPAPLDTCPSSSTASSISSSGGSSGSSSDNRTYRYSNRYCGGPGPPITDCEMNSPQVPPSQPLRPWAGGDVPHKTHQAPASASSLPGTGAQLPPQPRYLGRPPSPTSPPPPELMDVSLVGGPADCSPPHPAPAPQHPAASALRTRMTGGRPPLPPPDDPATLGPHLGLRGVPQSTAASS
T3 sequence (P49759 whole entry): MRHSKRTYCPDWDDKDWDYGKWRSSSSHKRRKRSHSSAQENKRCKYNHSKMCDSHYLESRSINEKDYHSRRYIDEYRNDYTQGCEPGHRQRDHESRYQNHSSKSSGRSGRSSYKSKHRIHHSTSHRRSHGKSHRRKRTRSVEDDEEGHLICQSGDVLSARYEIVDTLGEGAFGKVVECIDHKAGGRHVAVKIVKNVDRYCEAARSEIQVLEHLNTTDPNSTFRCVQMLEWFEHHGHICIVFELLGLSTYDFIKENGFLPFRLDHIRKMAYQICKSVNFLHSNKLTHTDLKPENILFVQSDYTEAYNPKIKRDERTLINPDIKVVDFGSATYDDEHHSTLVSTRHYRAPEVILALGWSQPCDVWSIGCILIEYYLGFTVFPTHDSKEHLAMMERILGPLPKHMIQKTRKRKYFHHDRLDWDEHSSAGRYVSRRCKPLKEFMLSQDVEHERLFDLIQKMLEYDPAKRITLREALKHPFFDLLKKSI

For `CC(=O)c1cc2cc(O)ccc2s1` [1-(5-hydroxy-1-benzothiophen-2-yl)ethan-1-one], the IC50 in the data set on DYRK1A (read-out: IC50 DYRK1A) is 200 nM.

In the case of `COc1cccc2c1-c1c(sc3ccccc13)C2=O` [4a, 10-Methoxy-6H-benzo[b]indeno[1,2-d]thiophen-6-one], the “microsomal stability in words” value in data set [1] is “rapidly metabolized”.

In the case of `COc1cccc2c1C(=O)c1sc3ccccc3c1-2` [4d, 7-Methoxy-6H-benzo[b]indeno[1,2-d]thiophen-6-one], on DYRK1B [2], the inhibition at 1 µM was determined as 7%. Moreover, in data set [1], the “microsomal stability in words” value is recorded as “rapidly metabolized”.

Take `COc1ccc2sc3c(c2c1)-c1ccccc1C3=O` [4e, 2-Methoxy-6H-benzo[b]indeno[1,2-d]thiophen-6-one]: the inhibition at 1 µM on DYRK1B [2] amounted to 68%.

In the case of `COc1ccc2sc3c(c2c1)-c1c(OC)cccc1C3=O` [4f, 2,10-Dimethoxy-6H-benzo[b]indeno[1,2-d]thiophen-6-one], the inhibition at 1 µM at DYRK1B [2] is less than 5%. Further, in data set [1], the “microsomal stability in words” value was “rapidly metabolized”.

For the compound `O=C1c2ccccc2-c2c1sc1ccc(O)cc21` [4i, 2-Hydroxy-6H-benzo[b]indeno[1,2-d]thiophen-6-one], the inhibition at 1 µM on DYRK1B [2] came out at 89%.

Turning to `COc1ccc2c(c1)-c1c(sc3ccc(O)cc13)C2=O` [4j, 2-Hydroxy-9-methoxy-6H-benzo[b]indeno[1,2-d]thiophen-6-one], the inhibition at 1 µM on DYRK1B [2] worked out at 93%.

As for `COc1ccc2c(c1)C(=O)c1sc3ccc(O)cc3c1-2` [4k, 2-Hydroxy-8-methoxy-6H-benzo[b]indeno[1,2-d]thiophen-6-one], the IC50 amounted to 206 nM on DYRK1B [3], 186 nM at DYRK2, 1080 nM on CLK1 [4] and 20 nM against CLK1 [5]. Moreover, the inhibition at 1 µM at DYRK1B [2] was 78%.

With `O=C(c1ccccc1)c1cc2cc(O)ccc2s1` [5c], the concentration for half-maximal inhibition (IC50) in the data set with DYRK1A (read-out: IC50 for DYRK1A, benzothiophenyl-acetophenones 5, Fig. 2) is 2000 nM.

Source of the values: PMC11487425 (RSC Medicinal Chemistry, 2024).
